The target in one series is T1, h5-HT2A receptor (Homo sapiens, UniProt P28223).
T1 construct: expressed in transfected cells; host or cells: CHO cells
Kind of series: Functional activity, FLIPR calcium assay, CHO cells expressing h5-HT2A. It is filed as cell-based. Particulars: for Emax: CHO, read-out: h5-HT2A Relative Efficacy (%); for EC50: FLIPR, CHO cells, Fluo 3-AM. On the procedure: (§1) The functional activity of compounds of formula (I) was assayed using a Fluorimetric Imaging Plate reader (FLIPR) in the following manner.
(§2) CHO cells expressing either the h5-HT2C or h5-HT2A receptors were counted and plated into standard 96 well microtitre plates before the day of testing to give a confluent monolayer. The following day the cells were dye loaded with the calcium sensitive dye Fluo 3-AM by incubation with serum free culture maintenance media containing plumnic acid and Fluo 3-AM dissolved in DMSO at 37° C. in a CO2 incubator at 95% humidity for approximately 90 minutes. Unincorporated dye was removed by washing with Hanks balanced salt solution containing 20 mM HEPES and 2.5 mM probenecid (the assay buffer) using an automated cell washer to leave a total volume of 100 μl/well.
(§3) The drug (dissolved in 50 μl of assay buffer) was added at a rate of 70 μL/sec to each well of the FLIPR 96 well plate during fluorescence measurements. The measurements are taken at 1 sec intervals and the maximum fluorescent signal was measured (approx 10–15 secs after drug addition) and compared with the response produced by 10 μM 5-HT (defined as 100%) to which it is expressed as a percentage response (relative efficacy). Dose response curves were constructed using Graphpad Prism (Graph Software Inc.).

Another series addresses T2, h5-HT2C receptor (Homo sapiens, UniProt P28335).
T2 construct: expressed in transfected cells; host or cells: CHO cells
T2 sequence (P28335 33-458): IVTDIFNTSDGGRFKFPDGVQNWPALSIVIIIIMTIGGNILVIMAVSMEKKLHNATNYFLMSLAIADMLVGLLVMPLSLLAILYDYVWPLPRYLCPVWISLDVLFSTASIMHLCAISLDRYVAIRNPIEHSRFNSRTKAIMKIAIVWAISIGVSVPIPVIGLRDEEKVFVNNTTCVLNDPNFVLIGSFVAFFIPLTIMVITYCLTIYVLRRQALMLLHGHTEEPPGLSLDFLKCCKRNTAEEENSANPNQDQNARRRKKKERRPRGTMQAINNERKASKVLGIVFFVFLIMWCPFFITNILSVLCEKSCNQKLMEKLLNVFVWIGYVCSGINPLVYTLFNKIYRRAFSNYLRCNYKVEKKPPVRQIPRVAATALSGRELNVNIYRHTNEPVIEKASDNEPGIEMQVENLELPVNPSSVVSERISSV
Nature of the series: Functional activity, FLIPR calcium assay, CHO cells expressing h5-HT2C. It is filed as cell-based. To be noted: for Emax: CHO, read-out: h5-HT2C Relative Efficacy (%); for EC50: FLIPR, CHO cells, Fluo 3-AM. As for the experimental part:
as §1, §2, §3

The conditions of series [1]: prolonged period (greater than 6 months); cited from earlier work.
The target in the next series is T3, 5-HT2C receptor (Homo sapiens, UniProt P28335).
T3 construct: expressed in transfected cells; host or cells: CHO cell line
T3 sequence (P28335 33-458): T2 sequence (P28335 33-458)
Nature of the series: Binding to 5-HT2C receptor, [3H]-5-HT, CHO cell line. To be noted: read-out: Ki (2C). On the procedure: (§4) The binding of compounds of formula (1) to serotonin receptors was determined in vitro by standard methods. The preparations were investigated in accordance with the assays given hereinafter.
Method (a): For the binding to the 5-HT2C receptor the 5-HT2C receptors were radiolabeled with [^3H]-5-HT. The affinity of the compounds for 5-HT2C receptors in a CHO cell line was determined according to the procedure of D. Hoyer, G. Engel and H. O. Kalknan, European J. Pharmacol., 1985, 118, 13–23.

For the next series, the target named is T4, human 5-HT2B receptors (Homo sapiens, UniProt P41595).
T4 construct: expressed in transfected cells; host or cells: CHO cell line
T4 sequence (P41595 whole entry): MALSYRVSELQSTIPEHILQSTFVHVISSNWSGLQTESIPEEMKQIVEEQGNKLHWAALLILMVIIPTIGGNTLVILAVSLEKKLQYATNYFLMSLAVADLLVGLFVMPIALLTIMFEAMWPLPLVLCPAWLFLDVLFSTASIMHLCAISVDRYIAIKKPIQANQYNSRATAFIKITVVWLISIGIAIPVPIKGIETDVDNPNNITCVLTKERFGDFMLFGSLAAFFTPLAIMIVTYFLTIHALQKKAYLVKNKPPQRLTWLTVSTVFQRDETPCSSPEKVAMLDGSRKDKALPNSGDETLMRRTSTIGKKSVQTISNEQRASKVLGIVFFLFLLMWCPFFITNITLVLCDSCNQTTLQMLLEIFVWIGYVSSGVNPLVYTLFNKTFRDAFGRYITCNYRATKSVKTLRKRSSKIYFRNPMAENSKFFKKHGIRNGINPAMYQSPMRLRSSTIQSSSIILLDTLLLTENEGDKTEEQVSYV
Nature of the series: Binding to 5-HT2B receptor, [3H]-5-HT, CHO cell line. Particulars: read-out: Ki (2B). As for the experimental part: as §4
Method (b): For the binding to the 5-HT2B receptor the 5-HT2B receptors were radiolabeled with [3H]-5-HT. The affinity of the compounds for human 5-HT2B receptors in a CHO cell line was determined according to the procedure of K. Schmuck, C. Ullmer, P. Engels and H. Lubbert, FEBS Lett., 1994, 342, 85–90.

The next series addresses T5, 5-HT2A receptor (Homo sapiens, UniProt P28223).
T5 construct: expressed in transfected cells; host or cells: CHO cell line
Nature of the series: Binding to 5-HT2A receptor, [125I]-DOI, CHO cell line. Particulars: read-out: Ki (2A). As for the experimental part:
as §4
Method (c): For the binding to the 5-HT2A receptor the 5-HT2A receptors were radiolabeled with [^125I]-DOI. The affinity of the compounds for 5-HT2A receptors in a CHO cell line was determined according to the procedure of D. J. McKenna and S. J. Peroutka, J. Neurosci., 1989, 9/10, 3482–90.

The next series concerns rats. To be noted: cited from earlier work.
The subject of another series is female volunteers. To be noted: single injection; cited from earlier work.
Series [2] relates to obese male and female subjects. To be noted: subchronic treatment for a 14 day period; cited from earlier work.
Where [3] appears, read: maximum fluorescent signal relative to 10 μM 5-HT (defined as 100%).

The structures appear in SMILES notation. Where a name gives a salt, the structure may show the parent alone.

T1 sequence (P28223 whole entry): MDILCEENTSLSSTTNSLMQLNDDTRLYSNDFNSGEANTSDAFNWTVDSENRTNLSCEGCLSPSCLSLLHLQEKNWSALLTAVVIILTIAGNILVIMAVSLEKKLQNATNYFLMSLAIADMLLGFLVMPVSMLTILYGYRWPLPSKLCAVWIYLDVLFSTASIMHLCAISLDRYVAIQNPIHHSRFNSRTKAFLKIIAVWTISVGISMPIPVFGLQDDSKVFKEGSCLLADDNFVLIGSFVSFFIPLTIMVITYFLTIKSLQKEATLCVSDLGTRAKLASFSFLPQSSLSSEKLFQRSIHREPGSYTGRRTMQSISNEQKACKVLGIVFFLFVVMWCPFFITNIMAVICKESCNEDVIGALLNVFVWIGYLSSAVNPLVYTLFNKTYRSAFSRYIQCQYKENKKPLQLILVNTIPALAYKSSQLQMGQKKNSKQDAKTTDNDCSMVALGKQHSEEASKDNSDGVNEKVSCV
T5 sequence (P28223 whole entry): as above

In the case of `C[C@H](N)CN1CCc2ccc3c(c21)CCC3` [Compound 8, (S)-1-[1-(1,2,3,6,7,8-Hexabydrocyclopent[g]indolyl)]-2-propylamine fumarate], the Emax at h5-HT2A receptor (setting [3]) came to 0%; at h5-HT2C receptor (setting [3]), 69%. Further, the EC50 at h5-HT2A receptor is not below 10000 nM; at h5-HT2C receptor, 217 nM.

Turning to `C[C@H](N)CN1CCc2ccc3c(c21)CCS3` [Compound 5, (S)-1-(2,3,7,8-Tetrahydrothieno[2,3-g]indol-1-yl)-2-propylamine fumarate], the Emax worked out at 77% at h5-HT2A receptor (setting [3]) and 86% on h5-HT2C receptor (setting [3]). The half-maximal effective concentration (EC50) at h5-HT2A receptor worked out at 48 nM; at h5-HT2C receptor, 0.4 nM.

In the case of `C[C@H](N)CN1CCc2ccc3c(c21)OCCO3` (as salt: fumarate) [Compound 6, (S)-1-(2,3,7,8-Tetrahydro-9H-1,4-dioxino[2,3-g]indol-9-yl)2-propylamine fumarate], the melting point is 173 to 174 °C (dec.).

For the molecule `CCNC(C)Cc1cccc(C(F)(F)F)c1` (stereo not drawn) [fenfluramine], the “food intake and body weight” value in [1] is “decrease food intake and body weight”.

For the molecule `C[C@H](N)CN1CCc2ccc3c(c21)CCO3` [Compound 3, (S)-1-(2,3,7,8-Tetrahydrofuro[2,3-g]indol-1-yl)-2-propylamine fumarate], the values for the Emax at h5-HT2A receptor (setting [3]) and at h5-HT2C receptor (setting [3]) were 81% and 94%, respectively. The EC50 came out at 138 nM on h5-HT2A receptor and 6 nM on h5-HT2C receptor.

For `C[C@H](N)CN1CCc2ccc3c(c21)CCO3` (as salt: fumarate) [Compound 3, (S)-1-(2,3,7,8-Tetrahydrofuro[2,3-g]indol-1-yl)-2-propylamine fumarate], the melting point is 215.5 to 217 °C (dec.).

Regarding `C[C@H](N)CN1CCc2ccc3ccccc3c21` [Compound 1, (S)-1-(Benz[g]indolin-1-yl)-2-propylamine hemi-fumarate], the figures for the Ki at 5-HT2C receptor, on human 5-HT2B receptors and on 5-HT2A receptor were 107 nM, 39 nM and 173 nM, respectively. In addition, the Emax is 51% on h5-HT2A receptor (setting [3]) and 79% at h5-HT2C receptor (setting [3]). The values for the half-maximal effective concentration (EC50) at h5-HT2A receptor and at h5-HT2C receptor were 1370 nM and 158 nM, respectively.

On to `C[C@H](N)CN1CCc2ccc3c(c21)CCCO3` [Compound 4, (S)-1-(2,3,7,8-Tetrahydro-9H-pyrano[2,3-g]indol-1-yl)-2-propylamine fumarate], for which the Emax on h5-HT2A receptor (setting [3]) worked out at 66%; at h5-HT2C receptor (setting [3]), 89%. Besides, the EC50 on h5-HT2A receptor was determined as 505 nM; at h5-HT2C receptor, 47 nM.

Regarding `Clc1cccc(N2CCNCC2)c1` [mCPP, m-chlorophenylpiperazine], the “appearance of the behavioural satiety sequence” value in the series on rats (rat, in vivo) is listed as “accelerate the appearance of the behavioural satiety sequence”. Moreover, the “food intake in rats” value with rats (rats) is “reduce food intake”. Moreover, in the series with female volunteers, the “food intake in female volunteers” value was “decreased food intake”. In addition, the “appetite and body weight of obese subjects” value in series [2] is “decreased the appetite and body weight”.

With `C[C@@H](N)CN1CCc2ccc3ccccc3c21` [Compound 2, (R)-1-(Benz[g]indolin-1-yl)-2-propylamine hemi-fumarate], the EC50 at h5-HT2A receptor was more than 10000 nM; on h5-HT2C receptor it was 1720 nM. For the same molecule, on h5-HT2C receptor (setting [3]), the Emax was found to be 44%.

Consider `C[C@H](N)CN1CCc2ccc3c(c21)CCCO3` (as salt: fumarate) [Compound 4, (S)-1-(2,3,7,8-Tetrahydro-9H-pyrano[2,3-g]indol-1-yl)-2-propylamine fumarate], for which the melting point lay in the range of 168 to 169 °C.

For the molecule `CCC1CN(CC(C)N)c2c1ccc1c2CCO1` (single isomer, unassigned) [Compound 10, [2S,3′(S or R)]-1-(3-Ethyl-2,3,7,8-tetrahydrofuro[2,3-g]indol-1-yl)-2-propylamine fumarate], the figures for the EC50 at h5-HT2A receptor and on h5-HT2C receptor were 403 nM and 51 nM, respectively. For the same molecule, the “h5-HT2A Relative Efficacy (%)” value on h5-HT2A receptor (setting [3]) is 15%. Moreover, the “h5-HT2C Relative Efficacy (%)” value on h5-HT2C receptor (setting [3]) amounted to 67%.

Consider `C[C@H](N)CN1CCc2ccc3c(c21)OCCO3` [Compound 6, (S)-1-(2,3,7,8-Tetrahydro-9H-1,4-dioxino[2,3-g]indol-9-yl)2-propylamine fumarate], for which the inhibition constant Ki at 5-HT2C receptor is 70 nM; on human 5-HT2B receptors it was 218 nM; at 5-HT2A receptor it was 223 nM. Also, the Emax at h5-HT2A receptor (setting [3]) was 71%; on h5-HT2C receptor (setting [3]) it was 90%. The EC50 at h5-HT2A receptor came out at 312 nM; on h5-HT2C receptor, 47 nM.

The molecule `C[C@H](N)CN1CCc2ccc3c(c21)CCCC3` (as salt: fumarate) [Compound 7, (S)-1-(2,3,6,7,8,9-Hexabydro-1H-benz[g]indol-1-yl)]-2-propylamine, fumarate] registered a melting point of 178 to 182 °C.

Consider `C[C@H](N)CN1CCc2ccc3c(c21)CCC3` (as salt: fumarate) [Compound 8, (S)-1-[1-(1,2,3,6,7,8-Hexabydrocyclopent[g]indolyl)]-2-propylamine fumarate], for which the melting point is 182 °C (dec.).

In the case of `CCN[C@@H](C)Cc1cccc(C(F)(F)F)c1` [dexfenfluramine], the “food intake and body weight” value in series [1] is “decrease food intake and body weight”.

As to `C[C@H](N)CN1CCc2ccc3c(c21)CCS3` (as salt: fumarate) [Compound 5, (S)-1-(2,3,7,8-Tetrahydrothieno[2,3-g]indol-1-yl)-2-propylamine fumarate], the melting point is 188 to 189.5 °C (dec.).

Turning to `C[C@H](N)CN1CCc2ccc3c(c21)CCCC3` [Compound 7, (S)-1-(2,3,6,7,8,9-Hexabydro-1H-benz[g]indol-1-yl)]-2-propylamine, fumarate], the Emax at h5-HT2A receptor (setting [3]) amounted to 14%; at h5-HT2C receptor (setting [3]), 68%. The EC50 on h5-HT2A receptor worked out at 1830 nM; at h5-HT2C receptor, 440 nM.

As for `CCC1CN(CC(C)N)c2c1ccc1c2CCO1` (single isomer, unassigned) [Compound 9, [2S3′(R or S)]-1-(3-Ethyl-2,3,7,8-tetrahydrofuro[2,3-g]indol-1-yl)-2-propylamine fumarate], the Emax stood at 22% on h5-HT2A receptor (setting [3]) and 74% at h5-HT2C receptor (setting [3]). For the same molecule, the figures for the half-maximal effective concentration (EC50) on h5-HT2A receptor and on h5-HT2C receptor were 1140 nM and 50 nM, respectively.

As usually defined, the EC50 is the midpoint of the concentration-response curve. A word on the melting point: it is the temperature, or range, at which the solid turns liquid. A word on the Ki: it is a dissociation constant, usually derived from enzyme kinetics or from competition with a known ligand.

The values are drawn from US6962939B1, “Condensed indoline derivatives and their use as 5HT, in particular 5HT2C, receptor ligands” (Vernalis Research Limited, priority 1999, dated 2005).
